Results taken from US20090012118A1, “Kynurenic Acid Amide Derivatives as Nr2b Receptor Antagoni” (priority 2004, published 2009).
Like-named read-outs stand apart in the source and are kept apart here.

Assays:
NMRI mice [1] = assay: Mouse formalin test (second phase, licking/biting time); assay type: in vivo; settings: 15 min before formalin, licking time 20-25 min after formalin; for ED50: Mus musculus, po; for ED50 in mouse formalin test: p.o.
Protocol: Injection of diluted formalin into the hind paw of rats or mice is known to elicit a biphasic pain-related behavior measured as time spent by licking/biting of the injured paw. The second phase is generally defined as pain related events detected in the 15-60 min. time interval after formalin injection. It is known that NMDA receptors are involved in the second phase of response to formalin injection and this behavioral response is sensitive to blockade of NMDA receptors [Dickenson, A. and Besson J.-M. (Editors): Chapter 1, pp. 6-7: Animal models of Analgesia; and Chapter 8, pp. 180-183: Mechanism of Central Hypersensitivity: Excitatory Amino Acid Mechanisms and Their Control—In Pharmacology of Pain. Springer-Verlag (Berlin) 1997.] Therefore, we used the second phase of formalin test to characterize the efficacy of compounds in vivo. Inhibition of the second phase of response is considered to indicate an analgesic effect against chemically-induced persistent pain [Hunskaar, S., et al.: Formalin Test in Mice, a Useful Technique for Evaluating Mild Analgesics, Journal of Neuroscience Methods, 14 (1985) 69-76.]
Male albino NMRI mice (20-25 g) were used. Prior to the experiment any solid food was withdrawn for approx. 16 hours but the animals had free access to 20% glucose solution. The animals were allowed 1 hour acclimatization period in a glass cylinder (cc. 15 cm in diameter), then moved to an identical cylinder with a mirror placed behind to facilitate observation. The test substances were suspended in 5% tween-80 (10 ml per kg body weight). and administered orally by gavage 15 min before the formalin injection (20 μl of 1% formalin in 0.9% saline injected subcutaneously into the dorsal surface of the right hind paw). The time spent by licking and biting of the injected paw was measured from 20 to 25 min. after the formalin injection.

NR1a/NR2B NMDA receptor = biological target: T1, NR1a/NR2B NMDA receptor (Rattus norvegicus, UniProt P35439+Q00960); assay: Functional NMDA antagonism, fluorimetric intracellular calcium measurement on HEK293 cells expressing NR1a/NR2B; assay type: cell-based
T1 construct: expressed in transfected cells
T1 sequence (Q00960 27-1482, other chains not shown): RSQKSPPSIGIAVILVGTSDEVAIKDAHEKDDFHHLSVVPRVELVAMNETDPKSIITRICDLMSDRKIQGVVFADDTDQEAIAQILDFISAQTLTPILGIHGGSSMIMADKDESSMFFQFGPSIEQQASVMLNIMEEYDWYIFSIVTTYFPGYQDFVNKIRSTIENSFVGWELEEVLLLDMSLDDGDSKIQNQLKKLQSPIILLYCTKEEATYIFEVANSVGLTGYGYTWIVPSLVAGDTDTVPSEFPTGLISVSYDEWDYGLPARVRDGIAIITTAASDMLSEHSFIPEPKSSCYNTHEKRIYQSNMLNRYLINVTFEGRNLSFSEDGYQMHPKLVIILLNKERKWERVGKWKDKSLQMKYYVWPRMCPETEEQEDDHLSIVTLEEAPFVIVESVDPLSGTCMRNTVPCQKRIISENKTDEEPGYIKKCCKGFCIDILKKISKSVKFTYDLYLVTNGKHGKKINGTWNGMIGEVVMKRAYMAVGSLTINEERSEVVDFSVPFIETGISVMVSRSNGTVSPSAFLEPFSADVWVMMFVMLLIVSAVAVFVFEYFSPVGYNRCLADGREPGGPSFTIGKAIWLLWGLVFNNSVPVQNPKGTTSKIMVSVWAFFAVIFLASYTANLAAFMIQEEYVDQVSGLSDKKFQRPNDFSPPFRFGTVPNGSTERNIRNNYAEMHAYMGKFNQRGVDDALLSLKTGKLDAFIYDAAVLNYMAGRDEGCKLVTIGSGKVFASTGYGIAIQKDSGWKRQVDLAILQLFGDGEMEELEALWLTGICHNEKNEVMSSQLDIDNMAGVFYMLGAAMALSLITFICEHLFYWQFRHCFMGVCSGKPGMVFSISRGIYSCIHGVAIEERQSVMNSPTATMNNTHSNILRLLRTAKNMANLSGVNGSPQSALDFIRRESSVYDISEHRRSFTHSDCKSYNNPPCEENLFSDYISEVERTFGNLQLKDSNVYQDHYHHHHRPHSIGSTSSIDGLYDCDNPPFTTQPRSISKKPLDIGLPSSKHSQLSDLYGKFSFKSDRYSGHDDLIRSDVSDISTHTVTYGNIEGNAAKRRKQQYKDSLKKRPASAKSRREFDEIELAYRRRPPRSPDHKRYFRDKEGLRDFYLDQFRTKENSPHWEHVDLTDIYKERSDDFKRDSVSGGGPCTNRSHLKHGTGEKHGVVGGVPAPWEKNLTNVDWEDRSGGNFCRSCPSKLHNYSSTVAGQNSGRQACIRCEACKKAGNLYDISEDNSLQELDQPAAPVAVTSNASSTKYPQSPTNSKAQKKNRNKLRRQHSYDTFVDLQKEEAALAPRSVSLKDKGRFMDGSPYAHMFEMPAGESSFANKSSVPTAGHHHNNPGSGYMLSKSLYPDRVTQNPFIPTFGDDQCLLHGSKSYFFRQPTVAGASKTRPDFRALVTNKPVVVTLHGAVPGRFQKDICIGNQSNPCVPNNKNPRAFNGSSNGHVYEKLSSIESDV
Protocol: (§1) Compounds were tested for their inhibitory action on NMDA evoked cytosolic calcium elevations in fluorescent calcium measurements. Studies were performed 48-72 h after addition of the inducing agent. Ketamine (500 μM) was also present during the induction in order to prevent cytotoxicity.
Since NMDA receptors are known to be permeable to calcium ions upon excitation, the extent of NMDA receptor activation, and its inhibition by functional antagonists can be characterized by measuring the rise in the intracellular calcium concentration following agonist (NMDA) application onto the cells.
The intracellular calcium measurements are carried out on HEK293 cells expressing NR1a and NR2B or NR2A NMDA receptor subunits.
(§2) Loading is stopped by washing twice with the solution used also during the measurement (140 mM NaCl, 5 mM KCl, 2 mM CaCl2, 5 mM HEPES [4-(2-hydroxyethyl)-1-piperazineethane-sulfonic acid], 5 mM HEPES-Na, 20 mM glucose, 10 μM glycine, pH=7.4). Then the test compound dissolved in the above solution (90 μl/well) is added. Intracellular calcium measurements are carried out with a plate reader fluorimeter. A rise in Fluo-4-fluorescence that reflects the intracellular calcium concentration is induced by application of 200 μM NMDA. Inhibitory potency of the test compound is assessed by measuring the reduction in the calcium elevation in the presence of different concentrations of the compound.
(§3) Inhibitory potency of a compound at a single concentration point is expressed as percent inhibition of the control NMDA response. For NR1a/NR2B expressing cells concentration-inhibition curves are produced. Sigmoidal concentration-inhibition curves are fitted over the data and IC50 values are defined as the concentration that produces half of the maximal inhibition that could be achieved with the compound. Mean IC50 values are derived from at least three independent experiments. For NR1-3/NR2A expressing cells antagonism of NMDA induced rise in intracellular calcium concentration by compounds of the present invention and reference compounds was tested at 10 and 15 microM concentration, respectively.

NR1-3/NR2A NMDA receptor [2] = biological target: T2, NR1-3/NR2A NMDA receptor (Homo sapiens, UniProt Q05586+Q12879); assay: Functional NMDA antagonism, fluorimetric intracellular calcium measurement on HEK293 cells expressing NR1-3/NR2A; assay type: cell-based; design: NR1-3/NR2A % inhibition: dose or concentration left out as unconfirmed; settings: for inhibition at 10 µM: reference compounds; for inhibition at 15 µM: NMDA evoked calcium rise
T2 construct: expressed in transfected cells
T2 sequence (Q12879 23-1464, other chains not shown): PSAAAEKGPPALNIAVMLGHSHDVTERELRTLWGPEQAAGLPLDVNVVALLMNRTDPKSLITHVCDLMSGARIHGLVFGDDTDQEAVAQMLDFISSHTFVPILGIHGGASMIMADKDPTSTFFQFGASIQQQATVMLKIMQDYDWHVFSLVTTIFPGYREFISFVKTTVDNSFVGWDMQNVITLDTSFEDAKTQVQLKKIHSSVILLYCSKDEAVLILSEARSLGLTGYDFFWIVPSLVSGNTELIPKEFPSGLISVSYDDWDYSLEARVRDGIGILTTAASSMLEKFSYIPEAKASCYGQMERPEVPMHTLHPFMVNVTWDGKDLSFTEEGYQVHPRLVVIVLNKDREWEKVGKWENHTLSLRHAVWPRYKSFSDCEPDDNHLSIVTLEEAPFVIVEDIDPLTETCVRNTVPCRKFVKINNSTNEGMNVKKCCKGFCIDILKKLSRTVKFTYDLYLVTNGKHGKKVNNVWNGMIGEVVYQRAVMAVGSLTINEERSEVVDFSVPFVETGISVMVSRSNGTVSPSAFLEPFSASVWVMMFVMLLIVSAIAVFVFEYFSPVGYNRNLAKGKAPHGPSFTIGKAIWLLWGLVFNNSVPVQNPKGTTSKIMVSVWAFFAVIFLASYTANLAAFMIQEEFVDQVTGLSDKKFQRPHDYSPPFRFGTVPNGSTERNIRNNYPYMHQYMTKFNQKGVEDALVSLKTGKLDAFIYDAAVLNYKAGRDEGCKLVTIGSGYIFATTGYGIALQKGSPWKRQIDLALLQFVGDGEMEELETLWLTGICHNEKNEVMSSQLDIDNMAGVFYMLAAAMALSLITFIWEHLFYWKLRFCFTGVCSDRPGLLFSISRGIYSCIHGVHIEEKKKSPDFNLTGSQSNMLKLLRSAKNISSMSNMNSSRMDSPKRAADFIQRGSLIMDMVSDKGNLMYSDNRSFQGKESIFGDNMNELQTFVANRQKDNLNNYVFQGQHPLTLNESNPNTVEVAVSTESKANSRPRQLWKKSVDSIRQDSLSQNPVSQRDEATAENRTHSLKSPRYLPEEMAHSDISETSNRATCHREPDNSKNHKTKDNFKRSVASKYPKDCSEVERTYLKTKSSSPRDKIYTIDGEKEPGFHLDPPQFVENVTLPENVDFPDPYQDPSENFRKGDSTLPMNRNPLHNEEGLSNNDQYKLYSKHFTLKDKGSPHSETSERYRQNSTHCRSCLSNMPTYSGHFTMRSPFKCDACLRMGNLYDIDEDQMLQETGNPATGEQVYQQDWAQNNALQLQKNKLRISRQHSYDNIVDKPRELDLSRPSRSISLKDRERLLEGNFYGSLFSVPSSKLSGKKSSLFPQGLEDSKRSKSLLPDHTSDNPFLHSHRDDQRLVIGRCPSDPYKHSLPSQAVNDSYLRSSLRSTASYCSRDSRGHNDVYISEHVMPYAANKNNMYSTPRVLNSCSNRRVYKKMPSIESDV
Protocol: as §1, with “(2003)]. […] Compounds” for “Compounds”
(§4) Since NMDA receptors are known to be permeable to calcium ions upon excitation, the extent of NMDA receptor activation, and its inhibition by functional antagonists can be characterized by measuring the rise in the intracellular calcium concentration following agonist (NMDA) application onto the cells. Since there is very high sequence homology between rat and human NMDA receptors (99, 95, 97% for NR1, NR2A, and NR2B subunits, respectively), it is believed that there is little, if any, difference in their pharmacological sensitivity.
(§5) The intracellular calcium measurements are carried out on HEK293 cells expressing NR1a and NR2B or NR2A NMDA receptor subunits. The cells are plated onto standard 96-well microplates and the cultures are maintained in an atmosphere of 95% air −5% CO2 at 37° C. until testing.
as §2, with “The cells are loaded with a fluorescent Ca^2+-sensitive dye, Fluo-4/AM (2-2.5 μM) prior to testing. Loading” for “Loading”
as §3

NMRI mice [3] = assay: Mouse formalin test (second phase, licking/biting time); assay type: in vivo
NR1-3/NR2A NMDA receptor [4] = biological target: T3, NR1-3/NR2A NMDA receptor (Homo sapiens, UniProt Q12879); assay: Functional NMDA antagonism, fluorimetric intracellular calcium measurement on HEK293 cells expressing NR1-3/NR2A; assay type: cell-based; design: NR1-3/NR2A % inhibition: dose or concentration left out as unconfirmed; settings: reference compounds
T3 construct: expressed in transfected cells
T3 sequence (Q12879 23-1464, other chains not shown): as above
Protocol: as §1, with “(2003)]. […] Compounds” for “Compounds”
as §4, §5
as §2, with “The cells are loaded with a fluorescent Ca^2+-sensitive dye, Fluo-4/AM (2-2.5 μM) prior to testing. Loading” for “Loading”
as §3

[5] = HEK293 cells expressing NR1a/NR2B, reference compounds, read-out: NR1a/NR2B IC50
[6] = HEK293 cells expressing NR1a/NR2B, 200 μM NMDA evoked calcium rise, compounds of the invention, read-out: NR1a/NR2B IC50

| SMILES | IC50 (NR1a/NR2B NMDA receptor; [6]) [nM] | inhibition at 15 µM (NR1-3/NR2A NMDA receptor [2]) [%] | ED50 (NMRI mice [1]) [mg/kg] | further results |
| --- | --- | --- | --- | --- |
| O=c1[nH]c2ccc([S+]([O-])CCN3CCC(Cc4ccc(F)cc4)CC3)cc2o1 (centres unmarked) [CI-1041, 6-{2-[4-(4-fluoro-benzyl)-piperidin-1-yl]-ethanesulfinyl}-3H-benzooxazol-2-one, reference compound] | – | – | 2.4 | IC50 (NR1a/NR2B NMDA receptor): 8.4 nM; inhibition at 10 µM (NR1-3/NR2A NMDA receptor [2]): 21% |
| C[C@@H]([C@@H](O)c1ccc(O)cc1)N1CCC(O)(c2ccccc2)CC1 [CP 101,606, (1S,2S)-1-(4-hydroxyphenyl)-2-(4-hydroxy-4-phenylpiperidine-1-yl)-1-propanol, reference compound] | – | – | > 20 | ED50 (NMRI mice [3]; sc): > 20 mg/kg; inhibition at 10 µM (NR1-3/NR2A NMDA receptor [2]): 2.5% |
| Cc1ccc(CC2(O)CCN(CCOc3ccc(O)cc3)CC2)cc1 [Co-101244, 1-[2-(4-hydroxyphenoxy)ethyl]-4-hydroxy-4-(4-methylbenzyl)piperidine, reference compound] | – | – | – | ED50 in mouse formalin test (NMRI mice [1]): inactive; ED50 (NMRI mice [3]; ip): 5.9 mg/kg; IC50 (NR1a/NR2B NMDA receptor; [5]): 4.8 nM; inhibition at 10 µM (NR1-3/NR2A NMDA receptor [2]): -8.7% |
| Oc1ccc(OCCN2CCC(Cc3ccc(F)cc3)CC2)cc1 [Co-111103, 1-[2-(4-hydroxyphenoxy)ethyl]-4-(4-fluorobenzyl)piperidine, reference compound] | – | – | > 20 | – |
| O=C(CCN1CCC(Cc2ccc(F)cc2)CC1)c1ccc2[nH]c(=O)oc2c1 [EMD 95885, reference compound] | – | – | – | ED50 in mouse formalin test (NMRI mice [1]): 3.7 mg/kg; IC50 (NR1a/NR2B NMDA receptor; [5]): 48 nM; NR1-3/NR2A % inhibition (NR1-3/NR2A NMDA receptor [4]): 0.1% |
| O=C(c1cc(=O)c2cc3[nH]c(=O)oc3cc2[nH]1)N1CCC(Cc2ccccc2)CC1 [Example 9, 6-(4-Benzyl-piperidine-1-carbonyl)-1,5-dihydro-oxazolo[4,5-g]quinoline-2,8-dione] | 5.6 | -2.1 | > 20 | – |
| CC(CN1CCC(Cc2ccccc2)CC1)C(O)c1ccc(O)cc1 (stereo not drawn) [Ro 25.6981, R—(R*,S*)-1-(4-hydroxyphenyl)-2-methyl-3-[4-(phenylmethyl)piperidin-1-yl]-1-propanol, reference compound] | – | – | – | ED50 in mouse formalin test (NMRI mice [1]): inactive; ED50 (NMRI mice [3]; ip): 5.1 mg/kg; IC50 (NR1a/NR2B NMDA receptor): 57 nM; inhibition at 10 µM (NR1-3/NR2A NMDA receptor [2]): 1% |
| CC(C(O)c1ccc(O)cc1)N1CCC(Cc2ccccc2)CC1 (stereo not drawn) [ifenprodil, erythro-2-(4-benzylpiperidino)-1-(4-hydroxyphenyl)-1-propanol, reference compound] | – | – | – | inhibition at 10 µM (NR1-3/NR2A NMDA receptor [2]): -2.7% |

The next lines start with results.

| IC50 (NR1a/NR2B NMDA receptor; [6]) [nM] | inhibition at 15 µM (NR1-3/NR2A NMDA receptor [2]) [%] | SMILES | ED50 (NMRI mice [1]) [mg/kg] | further results |
| --- | --- | --- | --- | --- |
| 4 | -0.9 | O=C(c1cc(=O)c2cc(O)ccc2[nH]1)N1CCC(Cc2ccc(F)cc2)CC1 [Example 1, 2-[4-(4-Fluoro-benzyl)-piperidine-1-carbonyl]-6-hydroxy-1H-quinolin-4-one] | 9.5 | – |
| 3.7 | 7 | O=C(c1cc(=O)c2cc(O)ccc2[nH]1)N1CCC(Cc2ccccc2)CC1 [Example 2, 2-(4-Benzyl-piperidine-1-carbonyl)-6-hydroxy-1H-quinolin-4-one] | > 20 | – |
| 3.8 | -2.4 | Cc1ccc(CC2CCN(C(=O)c3cc(=O)c4cc(O)ccc4[nH]3)CC2)cc1 [Example 3, 6-Hydroxy-2-[4-(4-methyl-benzyl)-piperidine-1-carbonyl]-1H-quinolin-4-one] | 8.9 | – |
| 1.9 | -5.1 | O=C(c1cc(=O)c2cc(O)ccc2[nH]1)N1CCC(Cc2ccc(Cl)cc2)CC1 [Example 4, 2-[4-(4-Chloro-benzyl)-piperidine-1-carbonyl]-6-hydroxy-1H-quinolin-4-one] | > 20 | – |
| 21.5 | 5.7 | O=C(c1cc(=O)c2cc(O)ccc2[nH]1)N1CCC(OCc2ccccc2)CC1 [Example 5, 2-(4-Benzyloxy-piperidine-1-carbonyl)-6-hydroxy-1H-quinolin-4-one] | – | – |
| 8.9 | 14 | O=C(c1cc(=O)c2cc(O)ccc2[nH]1)N1CCC(COc2ccccc2)CC1 [Example 6, 6-Hydroxy-2-(4-Phenoxymethyl-piperidine-1-carbonyl)-1H-quinolin-4-one] | 0.46 | – |
| 5.1 | 5.1 | O=C(c1cc(=O)c2cc(O)ccc2[nH]1)N1CCC(Oc2ccc(Cl)cc2)CC1 [Example 7] | > 20 | – |
| 3.3 | -3.5 | Cc1ccc(OC2CCN(C(=O)c3cc(=O)c4cc(O)ccc4[nH]3)CC2)cc1 [Example 8, 6-Hydroxy-2-(4-p-tolyloxy-piperidine-1-carbonyl)-1H-quinolin4-one] | 8.2 | – |
| 28 | 0.2 | O=C(c1cc(=O)c2cc(O)ccc2[nH]1)N1CCC(Oc2ccccc2)CC1 [Example 10, 6-Hydroxy-2-(4-phenoxy-piperidine-1-carbonyl)-1H-quinolin-4-one] | – | – |
